Laboratory results taken from patent US20060094059A1, “Methods for identifying new drug leads and new therapeutic uses for known drugs” (Odyssey Thera, Inc., priority 2004, published 2006).

Key:
Cofilin:LIMK2 = assay: Protein-fragment complementation assay Cofilin:LIMK2; type: cell-based, human; settings: hit in Cofilin/LIMK2 assay; drugs screened at 10 micromolar
Text: (§1) To construct dynamic assays for protein-protein complexes, we used a protein-fragment complementation assay strategy (PCAs) in intact human cells. (A variety of other suitable assays, and reporter options, are described in detail below.) The principle of PCA is that complementary polypeptide fragments (F[1] and F[2]) of a reporter protein or enzyme will fold into an active form only if fused to two proteins which interact and bring the complementary fragments of the reporter protein into proximity. Reconstitution of the fragments of the reporter protein generates a fluorescent signal that can be quantified in intact cells, and the amount of the signal is proportional to the amount of the protein-protein complex used in constructing the assay. Given a suitable reporter type, the subcellular location of the complex can also be measured.
(§2) Reporter fragments for PCA were generated by oligonucleotide synthesis (Blue Heron Biotechnology, Bothell, Wash.), starting with the sequence of yellow fluorescent protein (YFP). First, oligonucleotides coding for polypeptide fragments YFP[1]and YFP[2] […] Next, PCR mutagenesis was used to generate the mutant fragments IFP[1] and IFP[2]. The IFP[1] fragment corresponds to YFP[1]-(F46L, F64L, M153T) and the IFP[2] fragment corresponds to YFP[2]-(V163A, S175G). […]

Smad3:HDAC = assay: Protein-fragment complementation assay Smad3:HDAC; type: cell-based, human; settings: hit in HDAC/SMAD3 assay; drugs screened at 10 micromolar
Text: as §1, §2

O=C(Nc1ccc([N+](=O)[O-])cc1Cl)c1cc(Cl)ccc1O [Niclosamide]
Assay activity (Cofilin:LIMK2): Cofilin/LIMK2, | Assay activity (Smad3:HDAC): HDAC/SMAD3,
